Experimental data: EP4567040A1, “CRYSTAL FORM OF FUSED TRICYCLIC DERIVATIVE AND PREPARATION METHOD” (Jiangsu Hengrui Pharmaceuticals Co., Ltd., priority 2022, dated 2024)

Legend:
Assay type in all cases: physicochemical
[1] = Hygroscopicity study of free-state crystal forms (DVS); details: for 0.0% RH-80.0% RH (hygroscopicity, mass change): DVS, 25 °C; for Crystal form: crystal form after DVS test
Method: Testing was performed using Surface Measurement Systems advantage 2, at 25 °C, with the humidity changing from 50% -95%-0%-95%-50%RH, in steps of 10%. The criterion was that each gradient mass change dM/dT is less than 0.002%, TMAX 360 min, two cycles.
Surface Measurement Systems intrinsic DVS was adopted. At 25 °C, the crystal forms were tested in a humidity range of 0%-95%, with increments of 10%. The criterion was that each gradient mass change dM/dT is less than 0.002%, TMAX 360 min, two cycles.

[2] = Influencing factor stability study of crystal forms; details: for physical stability / chemical stability: 30-day influencing factor experiments; for chemical stability: high temperature and high humidity conditions
Method: Example 50. Influencing Factor Stability Study of Crystal Forms Free-state samples were spread out, left to stand in open flasks, and subjected to 30-day stability tests under light exposure (4500 Lux), high temperature (40 °C and 60 °C), and high humidity (RH 75% and RH 92.5%) conditions.

[3] = Long-term/accelerated stability of crystal forms; details: for Purity%: sealed in aluminum foil bag; for Crystal form: after standing up to 6 months
Method: Free-state samples were sealed in aluminum foil bags and left to stand under 25 °C/60% RH and 40 °C/75% RH conditions to test their stability.

[4] = Light exposure (4500 Lux), 7 days, open flask
[5] = Light exposure (4500 Lux), 14 days, open flask
[6] = Light exposure (4500 Lux), 30 days, open flask
[7] = long-term accelerated conditions for 6 months

SMILES	0.0% RH-80.0% RH (hygroscopicity, mass change) [1] [%]	Crystal form [1]	physical stability [2]	Purity% ([2]; 40 °C, 7 days, open flask) [%]	chemical stability [2]	Purity% ([3]; 25 °C/60% RH, 1 month) [%]	Purity% ([3]; 25 °C/60% RH, 2 months) [%]	Purity% ([3]; 25 °C/60% RH, 3 months) [%]	Purity% ([3]; 25 °C/60% RH, 6 months) [%]	Purity% ([3]; 25 °C/60% RH, 14 days) [%]	Purity% ([3]; 25 °C/60% RH, Initial) [%]	Crystal form ([3]; 25 °C/60% RH)	Purity% ([3]; 40 °C/75% RH, 1 month) [%]	Purity% ([3]; 40 °C/75% RH, 2 months) [%]	Purity% ([3]; 40 °C/75% RH, 3 months) [%]	Purity% ([3]; 40 °C/75% RH, 6 months) [%]	Purity% ([3]; 40 °C/75% RH, 14 days) [%]	Purity% ([3]; 40 °C/75% RH, Initial) [%]	Crystal form ([3]; 40 °C/75% RH)	physical stability and chemical stability [3, 7]	other results
C[C@H]1COc2c(-c3nc(N[C@@H]4CCOC[C@H]4O)ncc3Cl)cc(F)c3nc(C(C)(C)O)n1c23 [Crystal form D, (3S,4R)-4-((5-chloro-4-((S)-8-fluoro-2-(2-hydroxypropan-2-yl)-3-methyl-3,4-dihydro-5-oxa-1,2a-diazaacenaphthylen-6-yl)pyrimidin-2-yl)amino)tetrahydro-2H-pyran-3-ol]	0.46	No change	good physical stability	99.9	good chemical stability	99.9	99.9	99.9	99.9	99.9	99.9	No change	99.9	99.9	99.9	99.9	99.9	99.9	No change	good physical stability and chemical stability	Purity% ([2]; 40 °C, 14 days, open flask): 99.9%; Purity% ([2]; 40 °C, 30 days, open flask): 99.9%; Purity% ([2]; 60 °C, 7 days, open flask): 99.9%; Purity% ([2]; 60 °C, 14 days, open flask): 99.9%; Purity% ([2]; 60 °C, 30 days, open flask): 99.9%; Purity% ([2]; 75% RH, 7 days, open flask): 99.9%; Purity% ([2]; 75% RH, 14 days, open flask): 99.9%; Purity% ([2]; 75% RH, 30 days, open flask): 99.9%; Purity% ([2]; 92.5% RH, 7 days, open flask): 99.9%; Purity% ([2]; 92.5% RH, 14 days, open flask): 99.9%; Purity% ([2]; 92.5% RH, 30 days, open flask): 99.9%; Purity% ([2]; Initial, 0 days): 99.9%; Purity% [2, 4]: 96.0%; Purity% [2, 5]: 94.6%; Purity% [2, 6]: 92.8%
C[C@H]1COc2c(-c3nc(N[C@@H]4CCOC[C@H]4O)ncc3Cl)cc(F)c3nc(C(C)(C)O)n1c23 [Crystal form E, (3S,4R)-4-((5-chloro-4-((S)-8-fluoro-2-(2-hydroxypropan-2-yl)-3-methyl-3,4-dihydro-5-oxa-1,2a-diazaacenaphthylen-6-yl)pyrimidin-2-yl)amino)tetrahydro-2H-pyran-3-ol]	3.45	No change	good physical stability	99.9	good chemical stability	99.9	99.9	99.9	99.9	99.9	99.9	No change	99.9	99.9	99.9	99.9	99.9	99.9	No change	good physical stability and chemical stability	Purity% ([2]; 40 °C, 14 days, open flask): 99.8%; Purity% ([2]; 40 °C, 30 days, open flask): 99.8%; Purity% ([2]; 60 °C, 7 days, open flask): 99.9%; Purity% ([2]; 60 °C, 14 days, open flask): 99.9%; Purity% ([2]; 60 °C, 30 days, open flask): 99.9%; Purity% ([2]; 75% RH, 7 days, open flask): 99.9%; Purity% ([2]; 75% RH, 14 days, open flask): 99.8%; Purity% ([2]; 75% RH, 30 days, open flask): 99.8%; Purity% ([2]; 92.5% RH, 7 days, open flask): 99.9%; Purity% ([2]; 92.5% RH, 14 days, open flask): 99.8%; Purity% ([2]; 92.5% RH, 30 days, open flask): 99.8%; Purity% ([2]; Initial, 0 days): 99.9%; Purity% [2, 4]: 99.6%; Purity% [2, 5]: 99.3%; Purity% [2, 6]: 98.7%
C[C@H]1COc2c(-c3nc(N[C@@H]4CCOC[C@H]4O)ncc3Cl)cc(F)c3nc(C(C)(C)O)n1c23 [Crystal form F, (3S,4R)-4-((5-chloro-4-((S)-8-fluoro-2-(2-hydroxypropan-2-yl)-3-methyl-3,4-dihydro-5-oxa-1,2a-diazaacenaphthylen-6-yl)pyrimidin-2-yl)amino)tetrahydro-2H-pyran-3-ol]	1.10	No change	good physical stability	–	good chemical stability	99.9	99.9	99.9	99.9	99.9	99.9	No change	99.9	99.9	99.9	99.9	99.9	99.9	No change	good physical stability and chemical stability	–
C[C@H]1COc2c(-c3nc(N[C@@H]4CCOC[C@H]4O)ncc3Cl)cc(F)c3nc(C(C)(C)O)n1c23 [Crystal form G, (3S,4R)-4-((5-chloro-4-((S)-8-fluoro-2-(2-hydroxypropan-2-yl)-3-methyl-3,4-dihydro-5-oxa-1,2a-diazaacenaphthylen-6-yl)pyrimidin-2-yl)amino)tetrahydro-2H-pyran-3-ol]	2.46	No change	good physical stability	–	good chemical stability	99.9	99.9	99.9	99.9	99.9	99.9	No change	99.9	99.9	99.9	99.9	99.9	99.9	No change	good physical stability and chemical stability	–
C[C@H]1COc2c(-c3nc(N[C@@H]4CCOC[C@H]4O)ncc3Cl)cc(F)c3nc(C(C)(C)O)n1c23 [Free-state amorphous form, (3S,4R)-4-((5-chloro-4-((S)-8-fluoro-2-(2-hydroxypropan-2-yl)-3-methyl-3,4-dihydro-5-oxa-1,2a-diazaacenaphthylen-6-yl)pyrimidin-2-yl)amino)tetrahydro-2H-pyran-3-ol]	–	–	good physical stability	–	good chemical stability	99.0	98.9	–	98.8	99.0	99.0	No change	99.0	98.9	–	98.8	99.0	99.0	Deliquescence	–	Crystal form ([2]; 40 °C, 7 days, open flask): No change; Crystal form ([2]; 40 °C, 14 days, open flask): No change; Crystal form ([2]; 40 °C, 30 days, open flask): No change; Crystal form ([2]; 60 °C, 7 days, open flask): No change; Crystal form ([2]; 60 °C, 14 days, open flask): No change; Crystal form ([2]; 60 °C, 30 days, open flask): No change; Crystal form ([2]; 75% RH, 7 days, open flask): No change; Crystal form ([2]; 75% RH, 14 days, open flask): No change; Crystal form ([2]; 75% RH, 30 days, open flask): No change; Crystal form ([2]; 92.5% RH, 7 days, open flask): No change; Crystal form ([2]; 92.5% RH, 14 days, open flask): No change; Crystal form ([2]; 92.5% RH, 30 days, open flask): No change; Crystal form ([2]; Initial, 0 days): Free-state amorphous form; Crystal form [2, 4]: No change; Crystal form [2, 5]: No change; Crystal form [2, 6]: No change; deliquescence ([3]; accelerated conditions): deliquescence; physical stability and chemical stability ([3]; under other conditions (than those giving deliquescence)): good physical stability and chemical stability
